Values after ≈ are worked out from the molar mass of the structure shown.
Experiments:
Type in all cases: functional
Candida albicans [1] = experiment: Antifungal activity against Candida albicans at 100 ug; settings: read-out: DIZ
Pseudomonas aeruginosa = experiment: Antibacterial activity against Pseudomonas aeruginosa MTCC 741 by broth dilution method
Aspergillus niger [2] = experiment: Antifungal activity against Aspergillus niger at 150 ug; settings: read-out: DIZ
Candida albicans [3] = experiment: Antifungal activity against Candida albicans at 150 ug; settings: read-out: DIZ
Bacillus subtilis = experiment: Antibacterial activity against Bacillus subtilis MTCC 441 by broth dilution method
Escherichia coli = experiment: Antibacterial activity against Escherichia coli by broth dilution method
Staphylococcus aureus = experiment: Antibacterial activity against Staphylococcus aureus MTCC 11 by broth dilution method
Saccharomyces cerevisiae [4] = experiment: Antifungal activity against Saccharomyces cerevisiae at 150 ug; settings: read-out: DIZ
Rhizopus arrhizus [5] = experiment: Antifungal activity against Rhizopus oryzae at 100 ug; settings: read-out: DIZ
Aspergillus niger [6] = experiment: Antifungal activity against Aspergillus niger at 100 ug; settings: read-out: DIZ
Rhizopus arrhizus [7] = experiment: Antifungal activity against Rhizopus oryzae at 150 ug; settings: read-out: DIZ
Saccharomyces cerevisiae [8] = experiment: Antifungal activity against Saccharomyces cerevisiae at 100 ug; settings: read-out: DIZ

Row | MIC (Pseudomonas aeruginosa) | MIC (Bacillus subtilis) | MIC (Escherichia coli) | MIC (Staphylococcus aureus) | Compound | zone of inhibition at 100 µg/disc (Candida albicans [1]) | zone of inhibition at 150 µg/disc (Aspergillus niger [2]) | zone of inhibition at 150 µg/disc (Candida albicans [3]) | zone of inhibition at 150 µg/disc (Saccharomyces cerevisiae [4]) | zone of inhibition at 100 µg/disc (Rhizopus arrhizus [5]) | zone of inhibition at 100 µg/disc (Aspergillus niger [6]) | zone of inhibition at 150 µg/disc (Rhizopus arrhizus [7]) | zone of inhibition at 100 µg/disc (Saccharomyces cerevisiae [8])
1 | 75 µg/mL (≈ 408 µM) | 37.5 µg/mL (≈ 204 µM) | 75 µg/mL (≈ 408 µM) | 37.5 µg/mL (≈ 204 µM) | Cc1cnc(Cl)c(/C=C\CO)c1 | 11 mm | 16 mm | 14 mm | 13 mm | 14 mm | 12 mm | 17 mm | 11 mm
2 | 75 µg/mL (≈ 383 µM) | 37.5 µg/mL (≈ 192 µM) | 75 µg/mL (≈ 383 µM) | 37.5 µg/mL (≈ 192 µM) | CC(=O)/C=C/c1cc(C)cnc1Cl | 13 mm | 14 mm | 17 mm | – | 12 mm | 13 mm | 13 mm | –
3 | 37.5 µg/mL (≈ 204 µM) | 37.5 µg/mL (≈ 204 µM) | 37.5 µg/mL (≈ 204 µM) | 75 µg/mL (≈ 408 µM) | Cc1cnc(Cl)c(/C=C/CO)c1 | 13 mm | 17 mm | 15 mm | 14 mm | 16 mm | 14 mm | 18 mm | 12 mm
4 | 75 µg/mL (≈ 354 µM) | 37.5 µg/mL (≈ 177 µM) | 37.5 µg/mL (≈ 177 µM) | 75 µg/mL (≈ 354 µM) | COC(=O)/C=C/c1cc(C)cnc1Cl | 8 mm | 17 mm | 11 mm | – | 10 mm | 16 mm | 11 mm | –
5 | 37.5 µg/mL (≈ 192 µM) | 37.5 µg/mL (≈ 192 µM) | 37.5 µg/mL (≈ 192 µM) | 75 µg/mL (≈ 383 µM) | CC(=O)/C=C\c1cc(C)cnc1Cl | 9 mm | 16 mm | 11 mm | – | 11 mm | 14 mm | 13 mm | –

More lines, now with the values behind:

Row | Compound | MIC (Pseudomonas aeruginosa) | MIC (Bacillus subtilis) | MIC (Escherichia coli) | MIC (Staphylococcus aureus) | zone of inhibition at 100 µg/disc (Candida albicans [1]) | zone of inhibition at 150 µg/disc (Aspergillus niger [2]) | zone of inhibition at 150 µg/disc (Candida albicans [3]) | zone of inhibition at 150 µg/disc (Saccharomyces cerevisiae [4]) | zone of inhibition at 100 µg/disc (Rhizopus arrhizus [5]) | zone of inhibition at 100 µg/disc (Aspergillus niger [6]) | zone of inhibition at 150 µg/disc (Rhizopus arrhizus [7]) | zone of inhibition at 100 µg/disc (Saccharomyces cerevisiae [8])
6 | C[C@@H]1[C@H](O)[C@@H](C)/C=C/C=C/C=C/C=C/C=C/C=C/C=C/[C@H](O[C@@H]2O[C@H](C)[C@@H](O)[C@H](N)[C@@H]2O)C[C@@H]2O[C@](O)(C[C@@H](O)C[C@@H](O)[C@H](O)CC[C@@H](O)C[C@@H](O)CC(=O)O[C@H]1C)C[C@H](O)[C@H]2C(=O)O [AMPHOTERICIN B] | – | – | – | – | 23.5 mm | – | – | – | 23 mm | 26 mm | – | 22 mm
7 | CC1(C)S[C@@H]2[C@H](NC(=O)Cc3ccccc3)C(=O)N2[C@H]1C(=O)O [PENICILLIN G] | 12.5 µg/mL (≈ 37.4 µM) | 1.56 µg/mL (≈ 4.67 µM) | 12.5 µg/mL (≈ 37.4 µM) | 1.56 µg/mL (≈ 4.67 µM) | – | – | – | – | – | – | – | –
8 | COC(=O)/C=C\c1cc(C)cnc1Cl | 37.5 µg/mL (≈ 177 µM) | 37.5 µg/mL (≈ 177 µM) | 37.5 µg/mL (≈ 177 µM) | 8.12 µg/mL (≈ 38.4 µM) | 11 mm | 17 mm | 13 mm | – | 10 mm | 14 mm | 11 mm | –
9 | CN[C@@H]1[C@H](O[C@H]2[C@H](O[C@H]3[C@H](O)[C@@H](O)[C@H](N=C(N)N)[C@@H](O)[C@@H]3N=C(N)N)O[C@@H](C)[C@]2(O)C=O)O[C@@H](CO)[C@H](O)[C@H]1O [STREPTOMYCIN] | 3.12 µg/mL (≈ 5.37 µM) | 6.25 µg/mL (≈ 10.7 µM) | 1.56 µg/mL (≈ 2.69 µM) | 6.25 µg/mL (≈ 10.7 µM) | – | – | – | – | – | – | – | –
10 | Cc1cnc(Cl)c(/C=C\C#N)c1 | 75 µg/mL (≈ 420 µM) | 37.5 µg/mL (≈ 210 µM) | 37.5 µg/mL (≈ 210 µM) | 75 µg/mL (≈ 420 µM) | – | 12 mm | 10 mm | – | 9 mm | 9 mm | 10 mm | –
11 | Cc1cnc(Cl)c(/C=C/C#N)c1 | 75 µg/mL (≈ 420 µM) | 75 µg/mL (≈ 420 µM) | 75 µg/mL (≈ 420 µM) | 75 µg/mL (≈ 420 µM) | 10 mm | 15 mm | 12 mm | – | 10 mm | 13 mm | 12 mm | –

Source: ChEMBL document CHEMBL1155346, “Synthesis, photochemical E (trans)-->Z (cis) isomerization and antimicrobial activity of 2-chloro-5-methylpyridine-3-olefin derivatives” (2009)
